Earlier results, collected in patent US4981867A, “Treatment of tremor using compounds that depress calcium currents in thalamic and other central nervous system neurons” (The Board of Trustees of the Leland Stanford Junior …, priority 1989, dated 1991).

Test system: essential-familial tremor
Conditions: stated as known in background

SMILES | suppression of essential-familial tremor
CCC1(c2ccccc2)C(=O)NCNC1=O [primidone] | can be suppressed
CC(C)NCC(O)COc1cccc2ccccc12 (centres unmarked) [propranolol] | can be suppressed
